Assay results taken from patent US9845340B2, “Peptides that specifically bind HGF receptor (cMet) and uses thereof” (Dyax Corp., priority 2003, dated 2017).

Legend:
cMet-Fc fusion protein = cMet-Fc fusion protein (Homo sapiens, UniProt P08581); experiment: Protein phage ELISA: peptide-displaying phage binding to soluble cMet-Fc versus TRAIL-Fc; conditions: phage isolate; cMet-Fc vs. TRAIL-Fc
Procedure: Protein phage ELISAs using peptide-displaying phage isolates from the various selection campaigns were performed to determine specificity of the peptides for cMet versus an unrelated Fc-fusion protein (TRAIL-Fc). Briefly, 384-well plates were coated overnight at 4 C with 0.5 μg/mL of cMet-Fc fusion protein or TRAIL-Fc fusion protein (background). The plates were blocked for 2 hours 37C with 3% (w/v) BSA in PBS containing 0.05% (v/v) Tween-20 (PBST). The plates were washed with PBST and 100 μL of peptide-displaying phage were added to each well. The plates were incubated for 2 hours at room temperature and washed with PBST. cMet-binding peptide-displaying phage were detected using an HRP-conjugated anti-M13 antibody.

[1] = molecular target: T1, 3T3 cells that over-express human cMet (Homo sapiens, UniProt P08581); experiment: Whole cell ELISA of peptide-displaying phage; type: cell-based; conditions: phage isolate; 3T3 cells expressing human cMet vs. non-expressing 3T3 cells
T1 construct: expressed in transfected cells; host or cells: 3T3 cells
T1 sequence (P08581 25-1390): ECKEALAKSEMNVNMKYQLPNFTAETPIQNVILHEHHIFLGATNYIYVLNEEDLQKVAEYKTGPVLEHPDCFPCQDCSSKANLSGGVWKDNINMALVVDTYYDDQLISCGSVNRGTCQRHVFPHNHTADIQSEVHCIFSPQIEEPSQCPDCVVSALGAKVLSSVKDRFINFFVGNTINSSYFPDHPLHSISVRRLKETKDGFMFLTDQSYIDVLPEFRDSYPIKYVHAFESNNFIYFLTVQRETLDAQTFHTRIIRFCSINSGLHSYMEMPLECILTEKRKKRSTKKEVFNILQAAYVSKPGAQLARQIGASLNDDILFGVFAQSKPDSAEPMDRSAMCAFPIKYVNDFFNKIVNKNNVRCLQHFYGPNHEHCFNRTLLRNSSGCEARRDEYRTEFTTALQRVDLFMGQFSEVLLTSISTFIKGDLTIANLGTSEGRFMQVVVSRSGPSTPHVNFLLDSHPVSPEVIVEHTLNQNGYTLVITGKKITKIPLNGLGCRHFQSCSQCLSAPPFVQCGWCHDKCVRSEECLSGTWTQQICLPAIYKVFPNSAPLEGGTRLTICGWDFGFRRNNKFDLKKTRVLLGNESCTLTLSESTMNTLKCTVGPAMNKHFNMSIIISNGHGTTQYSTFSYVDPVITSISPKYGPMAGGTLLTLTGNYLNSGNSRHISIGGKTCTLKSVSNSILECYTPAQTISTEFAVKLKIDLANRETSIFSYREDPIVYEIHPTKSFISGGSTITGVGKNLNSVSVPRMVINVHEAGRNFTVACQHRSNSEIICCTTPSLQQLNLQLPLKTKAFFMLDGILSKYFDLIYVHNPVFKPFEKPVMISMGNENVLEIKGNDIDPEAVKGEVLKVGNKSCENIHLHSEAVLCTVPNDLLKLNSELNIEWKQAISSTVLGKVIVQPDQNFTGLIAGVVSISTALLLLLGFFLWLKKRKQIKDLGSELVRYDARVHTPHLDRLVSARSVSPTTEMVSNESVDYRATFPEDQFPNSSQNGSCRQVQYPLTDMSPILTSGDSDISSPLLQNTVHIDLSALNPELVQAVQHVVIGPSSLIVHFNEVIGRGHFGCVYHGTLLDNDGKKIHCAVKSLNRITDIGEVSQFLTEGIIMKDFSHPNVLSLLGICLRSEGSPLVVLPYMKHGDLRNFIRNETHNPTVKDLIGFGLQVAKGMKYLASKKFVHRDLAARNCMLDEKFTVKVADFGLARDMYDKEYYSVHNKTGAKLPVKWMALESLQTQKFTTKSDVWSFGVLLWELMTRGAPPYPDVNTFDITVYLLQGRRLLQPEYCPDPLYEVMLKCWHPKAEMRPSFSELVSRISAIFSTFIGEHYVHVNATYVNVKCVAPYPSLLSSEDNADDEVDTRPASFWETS
Procedure: Whole cell ELISAs were performed using 3T3 cells that over-express human cMet. […] Briefly, 96-well plates were seeded with 10^5 cells per well. The plates were centrifuged for 5 minutes at 1600 rpm to pellet the cells. The resulting cell layer was fixed with 0.1% (v/v) glutaraldehyde for 12 minutes at 37 C. […] Peptide-displaying phage also were blocked in the above solution for 1 hour at 37 C. 100 μL of blocked phage was then added to each well and the plates were incubated for 1 hour at room temperature. The plates were washed with PBST. cMet-binding peptide-displaying phage were detected using an HRP-conjugated anti-M13 antibody.

Chain of cMet-Fc fusion protein (P08581 25-307 limits assumed): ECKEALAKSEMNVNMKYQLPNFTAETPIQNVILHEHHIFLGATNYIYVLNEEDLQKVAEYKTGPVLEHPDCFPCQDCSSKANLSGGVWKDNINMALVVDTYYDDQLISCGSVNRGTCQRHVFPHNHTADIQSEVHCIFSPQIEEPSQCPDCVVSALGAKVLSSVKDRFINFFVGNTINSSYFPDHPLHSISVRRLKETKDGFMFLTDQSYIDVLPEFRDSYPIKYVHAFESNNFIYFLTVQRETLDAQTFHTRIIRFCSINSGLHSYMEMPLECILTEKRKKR
Chain of cMet-Fc fusion protein (P08581 with tags, fused parts or gaps limits assumed): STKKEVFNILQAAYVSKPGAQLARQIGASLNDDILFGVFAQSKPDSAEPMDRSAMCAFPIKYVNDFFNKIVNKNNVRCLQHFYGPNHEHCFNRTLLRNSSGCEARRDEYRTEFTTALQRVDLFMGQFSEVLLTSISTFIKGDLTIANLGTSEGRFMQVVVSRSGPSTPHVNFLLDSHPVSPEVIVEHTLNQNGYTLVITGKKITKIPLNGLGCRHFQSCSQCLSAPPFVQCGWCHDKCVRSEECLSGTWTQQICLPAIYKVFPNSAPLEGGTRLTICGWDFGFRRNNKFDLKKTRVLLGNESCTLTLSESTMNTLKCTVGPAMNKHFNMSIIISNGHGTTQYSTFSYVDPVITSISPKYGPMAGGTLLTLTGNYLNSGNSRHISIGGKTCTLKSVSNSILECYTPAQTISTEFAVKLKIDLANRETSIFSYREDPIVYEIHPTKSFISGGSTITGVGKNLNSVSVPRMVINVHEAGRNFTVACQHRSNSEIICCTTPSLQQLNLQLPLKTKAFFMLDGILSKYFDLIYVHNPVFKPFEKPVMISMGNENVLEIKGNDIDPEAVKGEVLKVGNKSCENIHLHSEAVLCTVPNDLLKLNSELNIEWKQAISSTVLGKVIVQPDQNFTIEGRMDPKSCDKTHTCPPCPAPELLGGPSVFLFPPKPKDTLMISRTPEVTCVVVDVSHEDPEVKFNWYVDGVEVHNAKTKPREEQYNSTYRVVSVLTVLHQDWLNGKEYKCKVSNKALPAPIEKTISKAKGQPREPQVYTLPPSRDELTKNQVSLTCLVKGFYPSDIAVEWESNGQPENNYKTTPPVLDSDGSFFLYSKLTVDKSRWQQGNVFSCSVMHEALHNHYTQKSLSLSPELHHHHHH

Protein ELISA (cMet-Fc fusion protein)	WC ELISA [1]	Structure (SMILES)
13.5 fold over background	1.40 fold over background	CC[C@H](C)[C@H](NC(=O)[C@H](Cc1c[nH]c2ccccc12)NC(=O)[C@H](Cc1c[nH]cn1)NC(=O)CNC(=O)[C@H](C)NC(C)=O)C(=O)N[C@H]1CSSC[C@@H](C(=O)N[C@@H](CCC(N)=O)C(=O)N[C@@H](Cc2c[nH]c3ccccc23)C(=O)N[C@@H](Cc2c[nH]cn2)C(=O)NCC(=O)N[C@H](C(=O)NCC(=O)NCC(=O)NCC(=O)N[C@@H](CCCCNC(=O)c2ccc3c(c2)C(=O)OC32c3ccc(O)cc3Oc3cc(O)ccc32)C(N)=O)[C@@H](C)O)NC(=O)[C@H](CO)NC(=O)[C@H](Cc2ccccc2)NC(=O)[C@H]([C@@H](C)O)NC(=O)[C@@H]2CCCN2C(=O)[C@@H]2CCCN2C(=O)CNC(=O)[C@H](C(C)C)NC1=O [SEQ ID NO: 071]
12.6 fold over background	1.47 fold over background	CC(=O)N[C@@H](C)C(=O)NCC(=O)N[C@@H](CCC(=O)O)C(=O)N[C@@H](Cc1c[nH]c2ccccc12)C(=O)N[C@@H](Cc1c[nH]c2ccccc12)C(=O)N[C@H]1CSSC[C@@H](C(=O)N[C@@H](Cc2ccc(O)cc2)C(=O)N[C@@H](Cc2c[nH]c3ccccc23)C(=O)N[C@H](C(=O)NCC(=O)N[C@H](C(=O)NCC(=O)NCC(=O)NCC(=O)N[C@@H](CCCCNC(=O)c2ccc3c(c2)C(=O)OC32c3ccc(O)cc3Oc3cc(O)ccc32)C(N)=O)[C@@H](C)O)[C@@H](C)O)NC(=O)[C@H](CC(C)C)NC(=O)[C@H](Cc2ccccc2)NC(=O)[C@H](CCC(=O)O)NC(=O)[C@@H]2CCCN2C(=O)[C@@H]2CCCN2C(=O)CNC(=O)[C@H](Cc2c[nH]cn2)NC1=O [SEQ ID NO: 072]
4.7 fold over background	1.40 fold over background	CC[C@H](C)[C@H](NC(=O)[C@H](Cc1c[nH]c2ccccc12)NC(=O)[C@H](CC(N)=O)NC(=O)CNC(=O)[C@H](C)NC(C)=O)C(=O)N[C@H]1CSSC[C@@H](C(=O)N[C@@H](Cc2c[nH]c3ccccc23)C(=O)N[C@@H](Cc2ccc(O)cc2)C(=O)N[C@@H](Cc2c[nH]cn2)C(=O)NCC(=O)N[C@H](C(=O)NCC(=O)NCC(=O)NCC(=O)N[C@@H](CCCCNC(=O)c2ccc3c(c2)C(=O)OC32c3ccc(O)cc3Oc3cc(O)ccc32)C(N)=O)[C@@H](C)O)NC(=O)CNC(=O)[C@H](Cc2ccccc2)NC(=O)[C@H](CO)NC(=O)[C@@H]2CCCN2C(=O)[C@@H]2CCCN2C(=O)CNC(=O)[C@H]([C@@H](C)O)NC1=O [SEQ ID NO: 078]
16.1 fold over background	1.27 fold over background	CC[C@H](C)[C@@H]1NC(=O)[C@H](Cc2ccc(O)cc2)NC(=O)[C@H]([C@@H](C)O)NC(=O)[C@H](CCC(=O)O)NC(=O)[C@H](CC(C)C)NC(=O)[C@H](CC(=O)O)NC(=O)[C@H](Cc2ccccc2)NC(=O)[C@H](CC(=O)O)NC(=O)[C@@H](NC(=O)[C@H](Cc2ccc(O)cc2)NC(=O)[C@H](CC(=O)O)NC(=O)[C@H](Cc2ccc(O)cc2)NC(=O)[C@H](CC(=O)O)NC(=O)CNC(C)=O)CSSC[C@@H](C(=O)N[C@@H](Cc2c[nH]cn2)C(=O)N[C@@H](CO)C(=O)N[C@@H](Cc2ccc(O)cc2)C(=O)N[C@@H](CC(=O)O)C(=O)N2CCC[C@H]2C(=O)NCC(=O)NCC(=O)NCC(=O)N[C@@H](CCCCNC(=O)c2ccc3c(c2)C(=O)OC32c3ccc(O)cc3Oc3cc(O)ccc32)C(N)=O)NC(=O)[C@H](CCC(=O)O)NC(=O)[C@@H]2CCCN2C1=O [SEQ ID NO: 390]
12.4 fold over background	1.37 fold over background	CC[C@H](C)[C@@H]1NC(=O)[C@H](Cc2ccccc2)NC(=O)[C@H](CCC(=O)O)NC(=O)[C@@H](NC(=O)[C@H](Cc2c[nH]cn2)NC(=O)[C@H](Cc2ccccc2)NC(=O)[C@H](CC(=O)O)NC(=O)[C@H](CC(=O)O)NC(=O)CNC(C)=O)CSSC[C@@H](C(=O)N[C@@H](Cc2ccc(O)cc2)C(=O)N[C@@H](Cc2ccccc2)C(=O)N[C@@H](CC(N)=O)C(=O)N[C@@H](CC(=O)O)C(=O)N2CCC[C@H]2C(=O)NCC(=O)NCC(=O)NCC(=O)N[C@@H](CCCCNC(=O)c2ccc3c(c2)C(=O)OC32c3ccc(O)cc3Oc3cc(O)ccc32)C(N)=O)NC(=O)[C@H]([C@@H](C)CC)NC(=O)[C@H](CCC(=O)O)NC(=O)[C@H](CO)NC(=O)[C@H](CCC(N)=O)NC(=O)[C@H](Cc2ccc(O)cc2)NC(=O)[C@H](CC(=O)O)NC(=O)[C@H](CC(=O)O)NC1=O [SEQ ID NO: 391]
7.0 fold over background	1.17 fold over background	CC(=O)N[C@@H](C)C(=O)N[C@@H](CCC(N)=O)C(=O)N[C@@H](CCC(N)=O)C(=O)N[C@@H](C)C(=O)N[C@@H](CO)C(=O)N[C@@H](CCCNC(=N)N)C(=O)N[C@@H](Cc1ccccc1)C(=O)N[C@H](C(=O)N[C@@H](Cc1ccccc1)C(=O)N[C@H](C(=O)N[C@@H](CC(=O)O)C(=O)NCC(=O)N[C@@H](CC(=O)O)C(=O)N[C@@H](CO)C(=O)N[C@@H](Cc1ccc(O)cc1)C(=O)N[C@@H](Cc1c[nH]c2ccccc12)C(=O)N[C@@H](Cc1c[nH]c2ccccc12)C(=O)N[C@@H](Cc1ccccc1)C(=O)N[C@@H](CCC(=O)O)C(=O)N[C@@H](CC(=O)O)C(=O)N[C@@H](Cc1ccccc1)C(=O)NCC(=O)NCC(=O)NCC(=O)N[C@@H](CCCCNC(=O)c1ccc2c(c1)C(=O)OC21c2ccc(O)cc2Oc2cc(O)ccc21)C(N)=O)[C@@H](C)O)[C@@H](C)O [SEQ ID NO: 449]
4.3 fold over background	1.10 fold over background	CC[C@H](C)[C@H](NC(=O)CNC(=O)[C@H](CCC(N)=O)NC(=O)[C@@H](NC(=O)[C@H](CCC(N)=O)NC(=O)[C@H](C)NC(C)=O)[C@@H](C)CC)C(=O)N[C@@H](CCC(N)=O)C(=O)N[C@@H](CCCCN)C(=O)N[C@H](C(=O)N[C@@H](CCC(=O)O)C(=O)N[C@@H](CCC(N)=O)C(=O)NCC(=O)N[C@@H](CCC(=O)O)C(=O)N[C@@H](Cc1ccccc1)C(=O)N[C@@H](Cc1ccc(O)cc1)C(=O)N[C@@H](Cc1c[nH]c2ccccc12)C(=O)N[C@@H](Cc1ccccc1)C(=O)N[C@@H](CC(N)=O)C(=O)N[C@@H](Cc1c[nH]c2ccccc12)C(=O)N[C@@H](Cc1ccccc1)C(=O)N1CCC[C@H]1C(=O)N[C@@H](C)C(=O)NCC(=O)NCC(=O)NCC(=O)N[C@@H](CCCCNC(=O)c1ccc2c(c1)C(=O)OC21c2ccc(O)cc2Oc2cc(O)ccc21)C(N)=O)[C@@H](C)O [SEQ ID NO: 450]
8.2 fold over background	1.33 fold over background	CSCC[C@H](NC(=O)[C@H](CCCNC(=N)N)NC(=O)[C@H](Cc1c[nH]c2ccccc12)NC(=O)[C@H](CO)NC(=O)[C@H](CO)NC(=O)[C@H](CC(C)C)NC(=O)[C@H](Cc1ccccc1)NC(=O)[C@H](CC(=O)O)NC(=O)[C@H](CC(C)C)NC(=O)[C@H](Cc1ccc(O)cc1)NC(=O)[C@H](Cc1c[nH]c2ccccc12)NC(=O)[C@H](Cc1ccc(O)cc1)NC(=O)[C@@H]1CCCN1C(=O)[C@H](CCC(=O)O)NC(=O)[C@H](CCC(=O)O)NC(=O)[C@@H](NC(=O)[C@H](CCC(=O)O)NC(=O)[C@H](CCCNC(=N)N)NC(=O)[C@H](CCC(N)=O)NC(=O)[C@H](C)NC(C)=O)C(C)C)C(=O)N[C@@H](Cc1c[nH]cn1)C(=O)N[C@@H](CCC(=O)O)C(=O)NCC(=O)NCC(=O)NCC(=O)N[C@@H](CCCCNC(=O)c1ccc2c(c1)C(=O)OC21c2ccc(O)cc2Oc2cc(O)ccc21)C(N)=O [SEQ ID NO: 451]
35.3 fold over background	1.37 fold over background	CC[C@H](C)[C@H](NC(=O)[C@@H]1CCCN1C(=O)[C@H](Cc1ccc(O)cc1)NC(=O)[C@H](CO)NC(=O)[C@H](CCSC)NC(=O)[C@H](C)NC(=O)[C@H](CC(C)C)NC(=O)[C@H](CCCCN)NC(=O)[C@H](Cc1ccc(O)cc1)NC(=O)[C@H](Cc1c[nH]cn1)NC(=O)[C@H](C)NC(=O)[C@H](CCC(=O)O)NC(=O)[C@@H]1CCCN1C(=O)[C@H](CCCNC(=N)N)NC(=O)[C@H](CCC(N)=O)NC(=O)[C@H](C)NC(C)=O)C(=O)N[C@H](C(=O)N1CCC[C@H]1C(=O)N[C@@H](CCCNC(=N)N)C(=O)N[C@H](C(=O)N[C@@H](CCCCN)C(=O)N[C@H](C(=O)NCC(=O)NCC(=O)NCC(=O)N[C@@H](CCCCNC(=O)c1ccc2c(c1)C(=O)OC21c2ccc(O)cc2Oc2cc(O)ccc21)C(N)=O)[C@@H](C)O)[C@@H](C)O)[C@@H](C)CC [SEQ ID NO: 452]

Structure (SMILES)	Protein ELISA (cMet-Fc fusion protein)	WC ELISA [1]
CC[C@H](C)[C@H](NC(=O)[C@H](CO)NC(=O)CNC(=O)[C@H](C)NC(C)=O)C(=O)N[C@@H](CCC(N)=O)C(=O)N[C@H]1CSSC[C@@H](C(=O)N[C@H](C(=O)N2CCC[C@H]2C(=O)N[C@@H](Cc2ccc(O)cc2)C(=O)NCC(=O)N[C@H](C(=O)NCC(=O)NCC(=O)NCC(=O)N[C@@H](CCCCNC(=O)c2ccc3c(c2)C(=O)OC32c3ccc(O)cc3Oc3cc(O)ccc32)C(N)=O)[C@@H](C)O)[C@@H](C)O)NC(=O)[C@H](CCC(=O)O)NC(=O)[C@H](Cc2ccccc2)NC(=O)[C@H](CO)NC(=O)[C@@H]2CCCN2C(=O)[C@@H]2CCCN2C(=O)CNC(=O)[C@H](C(C)C)NC1=O [SEQ ID NO: 074]	6.7 fold over background	1.37 fold over background
